Source: patent publication US10882871B2, “18/19F-labelled compounds which target the prostate specific membrane antigen” (BRITISH COLUMBIA CANCER AGENCY BRANCH, priority 2016, dated 2021)
Where “and” joins values, the source holds several entries; their conditions need not be identical. Equal values may be shown once.

System: tumors derived from LNCaP cells
Assay: PET/CT imaging and biodistribution of F-18 labeled HTK-01069 and HTK-01070 in tumor-bearing mice
Format: in vivo, mouse (NODSCID 1L2RγKO male mice)
Method: LNCap cell line used in the tumor model was obtained commercially from ATTC (LNCaP clone FGC, CRL-1740). It was established from a metastatic site of left supraclavicular lymph node of human prostatic adenocarcinoma. Cells were cultured in PRMI 1640 (StemCell Technologies, Vancouver, BC) supplemented by 10% FBS, 100 U/mL penicillin and 100 μg/mL streptomycin at 37° C. in a humidified incubator containing 5% CO2. Cells grown to 80-90% confluence were then washed with sterile phosphate-buffered saline (1×PBS pH 7.4) and trypsinization. The collected cells number was counted with Hemacytometer (Hausser Scientific).
Tumor implantation: Imaging and biodistribution experiments were performed using NODSCID 1L2RγKO male mice. Three or four mice in each cage equipped with enrichments. The mice were maintained and the experiments were conducted in according to the guidelines established by Canadian Council on Animal Care and approved by Animal Ethics Committee of the University of British Columbia. Mice were housed under pathogen-free conditions and kept on twelve hours light and twelve hours dark cycle in the Animal Research Centre, British Columbia Cancer Research Centre, Vancouver, Canada.
Mice were anesthetized by inhalation with 2.5% isoflurane in 2.0 L/min of oxygen during cells implantation. Mice were implanted subcutaneously with 1×10^7 LNCaP cells behind left shoulder. Mice were imaged or used in biodistribution studies when the tumor grew up to reach 5-8 mm in diameter during 5-6 weeks.
PET/CT Imaging: PET imaging experiments were conducted using Siemens inveon micro PET/CT scanner. Each tumor bearing mouse was injected ˜6.44 MBq of F-18 labeled HTK-01069 and ˜7.08 MBq of F-18 labeled HTK-01070 through the tail vein under anesthesia. After one hour, the mice were sedated again with 2% isoflurane inhalation and positioned in the scanner. Static PET imaging was performed to determined activity uptake of tumor and other organs. A CT scan was obtained for localization and attenuation correction after segmentation for reconstructing the PET images. The data was acquired by scanning the mice for 10 minutes each. The mice were kept warm by a heating pad during acquisition. The mice were euthanized after imaging and followed by biodistribution. Please see FIGS. 2 and 3 of this specification for reconstructed PET images for 1L2RγKO mice injected with HTK-01069 and HTK-01070 respectively.
Blood was withdrawn immediately, and the organs of interest were quickly removed. Each organ was weighed and the tissue radioactivity was measured with a Cobra II gamma counter (Packard), normalized to the injected dose using a standard curve and expressed as the percentage of the injected dose per gram of tissue (% ID/g). Biodistribution data are shown for HTK-01069 in Tables 5, 6 and 7 and HTK-01070 in Tables 8, 9, 10 of the specification respectively.

[1] = 1 h p.i. with co-injection of 0.5 mg DCFPyL, Avg
[2] = 1 h p.i. with co-injection of 0.5 mg DCFPyL, single mice

C[N+](C)(Cc1cn(Cc2ccc(C(=O)NCCCC[C@H](NC(=O)N[C@@H](CCC(=O)O)C(=O)O)C(=O)O)cc2)nn1)C[B-](F)(F)[18F] [F-18 HTK-01070]
Biodistribution Adrenals [1]: 0.20 % ID/g
Biodistribution Blood [1]: 0.46 % ID/g
Biodistribution Bone [1]: 0.12 % ID/g
Biodistribution Brain [1]: 0.02 % ID/g
Biodistribution Fat [1]: 0.04 % ID/g
Biodistribution Heart [1]: 0.22 % ID/g
Biodistribution Intestine [1]: 0.31 % ID/g
Biodistribution Kidney [1]: 2.11 % ID/g
Biodistribution Liver [1]: 0.06 % ID/g
Biodistribution Lung [1]: 0.09 % ID/g
Biodistribution Muscle [1]: 0.30 % ID/g
Biodistribution Pancreas [1]: 1.76 % ID/g
Biodistribution Seminal [1]: 1.87 % ID/g
Biodistribution Spleen [1]: 0.06 % ID/g
Biodistribution Stomach [1]: 0.09 % ID/g
Biodistribution Tail [1]: 0.38 % ID/g
Biodistribution Testes [1]: 0.08 % ID/g
Biodistribution Tumour [1]: 0.27 % ID/g
Biodistribution Adrenals [2]: 0.23 % ID/g and 0.26 % ID/g and 0.17 % ID/g and 0.16 % ID/g
Biodistribution Brain [2]: 0.02 % ID/g
Biodistribution Heart [2]: 0.21 % ID/g and 0.27 % ID/g and 0.20 % ID/g and 0.19 % ID/g
Biodistribution Intestine [2]: 0.31 % ID/g and 0.30 % ID/g and 0.28 % ID/g and 0.32 % ID/g
Biodistribution Kidney [2]: 2.40 % ID/g and 2.05 % ID/g and 1.96 % ID/g
Biodistribution Liver [2]: 0.06 % ID/g and 0.08 % ID/g and 0.07 % ID/g and 0.05 % ID/g
Biodistribution Lung [2]: 0.11 % ID/g and 0.10 % ID/g and 0.07 % ID/g and 0.08 % ID/g
Biodistribution Muscle [2]: 0.31 % ID/g and 0.38 % ID/g and 0.23 % ID/g and 0.29 % ID/g
Biodistribution Pancreas [2]: 1.92 % ID/g and 1.65 % ID/g and 1.88 % ID/g and 1.57 % ID/g
Biodistribution Spleen [2]: 0.06 % ID/g and 0.05 % ID/g
Biodistribution Stomach [2]: 0.09 % ID/g and 0.14 % ID/g and 0.07 % ID/g
Biodistribution Tail [2]: 0.45 % ID/g and 0.35 % ID/g and 0.36 % ID/g
Biodistribution Testes [2]: 0.09 % ID/g and 0.10 % ID/g and 0.06 % ID/g
Biodistribution Tumour [2]: 0.35 % ID/g and 0.26 % ID/g and 0.21 % ID/g
Biodistribution Adrenals (1 h p.i., Avg): 4.65 % ID/g
Biodistribution Blood (1 h p.i., Avg): 0.52 % ID/g
Biodistribution Bone (1 h p.i., Avg): 0.44 % ID/g
Biodistribution Brain (1 h p.i., Avg): 0.04 % ID/g
Biodistribution Fat (1 h p.i., Avg): 0.73 % ID/g
Biodistribution Heart (1 h p.i., Avg): 0.33 % ID/g
Biodistribution Intestine (1 h p.i., Avg): 0.33 % ID/g
Biodistribution Kidney (1 h p.i., Avg): 71.70 % ID/g
Biodistribution Liver (1 h p.i., Avg): 1.69 % ID/g
Biodistribution Lung (1 h p.i., Avg): 1.39 % ID/g
Biodistribution Muscle (1 h p.i., Avg): 0.23 % ID/g
Biodistribution Pancreas (1 h p.i., Avg): 0.33 % ID/g
Biodistribution Seminal (1 h p.i., Avg): 3.13 % ID/g
Biodistribution Spleen (1 h p.i., Avg): 5.01 % ID/g
Biodistribution Stomach (1 h p.i., Avg): 0.10 % ID/g
Biodistribution Tail (1 h p.i., Avg): 0.76 % ID/g
Biodistribution Testes (1 h p.i., Avg): 0.67 % ID/g
Biodistribution Tumour (1 h p.i., Avg): 8.28 % ID/g
Biodistribution Blood (1 h p.i., single mice): 0.46 % ID/g and 0.63 % ID/g and 0.50 % ID/g and 0.51 % ID/g
Biodistribution Bone (1 h p.i., single mice): 0.37 % ID/g and 0.33 % ID/g and 0.58 % ID/g and 0.52 % ID/g and 0.38 % ID/g and 0.45 % ID/g
Biodistribution Brain (1 h p.i., single mice): 0.03 % ID/g and 0.04 % ID/g and 0.05 % ID/g
Biodistribution Heart (1 h p.i., single mice): 0.36 % ID/g and 0.47 % ID/g and 0.37 % ID/g and 0.27 % ID/g and 0.24 % ID/g and 0.28 % ID/g
Biodistribution Intestine (1 h p.i., single mice): 0.26 % ID/g and 0.32 % ID/g and 0.42 % ID/g and 0.37 % ID/g and 0.31 % ID/g
Biodistribution Kidney (1 h p.i., single mice): 62.45 % ID/g and 54.11 % ID/g and 52.66 % ID/g and 91.10 % ID/g and 76.59 % ID/g and 93.32 % ID/g
Biodistribution Liver (1 h p.i., single mice): 1.51 % ID/g and 1.53 % ID/g and 1.65 % ID/g and 1.90 % ID/g and 1.60 % ID/g and 1.94 % ID/g
Biodistribution Lung (1 h p.i., single mice): 1.32 % ID/g and 1.35 % ID/g and 1.24 % ID/g and 1.21 % ID/g and 1.59 % ID/g and 1.61 % ID/g
Biodistribution Muscle (1 h p.i., single mice): 0.28 % ID/g and 0.21 % ID/g and 0.24 % ID/g and 0.17 % ID/g and 0.25 % ID/g and 0.22 % ID/g
Biodistribution Pancreas (1 h p.i., single mice): 0.30 % ID/g and 0.33 % ID/g and 0.35 % ID/g and 0.28 % ID/g and 0.32 % ID/g and 0.41 % ID/g
Biodistribution Spleen (1 h p.i., single mice): 5.58 % ID/g and 4.75 % ID/g and 5.97 % ID/g and 4.51 % ID/g and 4.95 % ID/g and 4.31 % ID/g
Biodistribution Stomach (1 h p.i., single mice): 0.08 % ID/g and 0.09 % ID/g and 0.10 % ID/g and 0.16 % ID/g and 0.12 % ID/g
Biodistribution Testes (1 h p.i., single mice): 0.94 % ID/g and 0.79 % ID/g and 0.49 % ID/g and 0.57 % ID/g and 0.58 % ID/g and 0.64 % ID/g
Biodistribution Tumour (1 h p.i., single mice): 7.56 % ID/g and 10.45 % ID/g and 8.06 % ID/g and 8.60 % ID/g and 8.31 % ID/g and 6.70 % ID/g
Biodistribution Adrenals (2 h p.i., Avg): 1.79 % ID/g
Biodistribution Blood (2 h p.i., Avg): 0.16 % ID/g
Biodistribution Bone (2 h p.i., Avg): 0.10 % ID/g
Biodistribution Brain (2 h p.i., Avg): 0.02 % ID/g
Biodistribution Fat (2 h p.i., Avg): 0.38 % ID/g
Biodistribution Heart (2 h p.i., Avg): 0.47 % ID/g
Biodistribution Intestine (2 h p.i., Avg): 0.25 % ID/g
Biodistribution Kidney (2 h p.i., Avg): 42.78 % ID/g
Biodistribution Liver (2 h p.i., Avg): 0.05 % ID/g
Biodistribution Lung (2 h p.i., Avg): 0.09 % ID/g
Biodistribution Muscle (2 h p.i., Avg): 0.35 % ID/g
Biodistribution Pancreas (2 h p.i., Avg): 1.50 % ID/g
Biodistribution Seminal (2 h p.i., Avg): 6.41 % ID/g
Biodistribution Spleen (2 h p.i., Avg): 0.17 % ID/g
Biodistribution Stomach (2 h p.i., Avg): 1.30 % ID/g
Biodistribution Tail (2 h p.i., Avg): 0.56 % ID/g
Biodistribution Testes (2 h p.i., Avg): 0.28 % ID/g
Biodistribution Tumour (2 h p.i., Avg): 6.84 % ID/g
Biodistribution Brain (2 h p.i., single mice): 0.02 % ID/g and 0.03 % ID/g
Biodistribution Heart (2 h p.i., single mice): 0.32 % ID/g and 0.58 % ID/g and 0.55 % ID/g and 0.44 % ID/g and 0.46 % ID/g
Biodistribution Intestine (2 h p.i., single mice): 0.21 % ID/g and 0.23 % ID/g and 0.26 % ID/g and 0.24 % ID/g and 0.32 % ID/g
Biodistribution Liver (2 h p.i., single mice): 0.04 % ID/g and 0.06 % ID/g and 0.05 % ID/g and 0.07 % ID/g
Biodistribution Muscle (2 h p.i., single mice): 0.31 % ID/g and 0.39 % ID/g and 0.27 % ID/g and 0.33 % ID/g and 0.44 % ID/g
Biodistribution Pancreas (2 h p.i., single mice): 1.30 % ID/g and 1.76 % ID/g and 1.41 % ID/g and 1.23 % ID/g and 1.80 % ID/g
Biodistribution Testes (2 h p.i., single mice): 0.23 % ID/g and 0.34 % ID/g and 0.26 % ID/g and 0.19 % ID/g and 0.36 % ID/g
Biodistribution Tumour (2 h p.i., single mice): 6.12 % ID/g and 6.47 % ID/g and 7.93 % ID/g
